In US20220127298A1, “THERMOSPOROTHRIX HAZAKENSIS-DERIVED ANTIBACTERIALLY ACTIVE SUBSTANCE” (KENNAN EISEI KOGYO CO., LTD., priority 2019, published 2022):

What was measured:
[1] = system: Geobacillus stearothermophilus ATCC 7953; test: Heat resistance test B (storage), antibacterial activity as index; assay type: cell-based; conditions: FIG. 4-3
Protocol: (§1) Examples of a typical test for measuring the stability of a compound include pH stability test, as well as heat resistance test, and storage test. This information is also regarded as important in evaluating the compound as described above. Using the sample of HK-1 prepared in the above “3. Antibacterial activity test in changing pH”, experiments were carried out to examine whether the compound is stable or not using G. stearothermophilus and B. subtilis guided by the antibacterial activity as the index.
(§2) One (1) mL each of two samples prepared in the above “3. Antibacterial activity test in changing pH” was dispensed into two 1-mL micro tubes. The openings of total four tubes were closed hermetically with parafilm, and each one is shielded with an aluminum foil, and stored in a freezer set at −28° C., or an incubator set at 28° C. and 50° C. Each sample was assayed 1, 3, 6, 12, and 24 days after the initiation of the storage using the culture medium for assaying antibacterial activity prepared in “3. Antibacterial activity test in changing pH” above.

[2] = system: Bacillus subtilis NBRC 3134^T; test: as above; assay type: cell-based; conditions: FIG. 4-2
Protocol: as §1, §2

[3] = system: Streptomyces griseus NBRC 15744^T; test: Antibacterial spectrum test, paper disk assay; assay type: cell-based; conditions: 50 μL of 1000 γ solution in methanol, YMPD medium, 28° C., 4 days
Protocol: (§3) The antibacterial activity of HK-1 was assayed using a paper disk against the following bacterial bodies.
(§4) A piece of ice out of a glycerol stock of S. griseus stored at −80° C. was planarly inoculated on the YMPD agar culture medium with a toothpick. This was incubated at 28° C. for 5 days. After the incubation, a small amount of spore was scraped off with a swab, and planarly inoculated on the YMPD culture medium. A piece of paper disk was placed on a filter paper, onto which 50 μL of a HK-1 solution adjusted to 1000 γ with methanol was dropped and dried. Then the disk was placed on the agar culture medium coated with the bacterial body. After incubation at 28° C. for 4 days, the diameter of the inhibition ring was measured.

[4] = system: Streptomyces sp. AGRN-8; test: Antibacterial spectrum test, paper disk assay; assay type: cell-based; conditions: 50 μL of 1000 γ solution in methanol, BM medium, 45° C., 2 days
Protocol: as §3, §4
(§5) Assays were performed in the same manner as in 3 above, except that the incubation conditions were changed to BM culture medium, 45° C., and 2-day period.

[5] = system: Streptomyces sp. AGRN-9; test: Antibacterial spectrum test, paper disk assay; assay type: cell-based; conditions: 50 μL of 1000 γ solution in methanol, BM medium, 45° C., 2 days
Protocol: as §3, §4, §5

[6] = system: Streptomyces sp. AGRN-7; test: Antibacterial spectrum test, paper disk assay; assay type: cell-based; conditions: 50 μL of 1000 γ solution in methanol, ISP2 medium, 45° C., 2 days
Protocol: as §3, §4
An assay was performed in the same manner as in 3 above, except that the incubation conditions were changed to ISP2 culture medium, 45° C., and 2-day period.

[7] = pH stability by HPLC analysis; assay type: physicochemical; conditions: methanol solution 1000 γ
Protocol: Into a 50-mL Falcon tube, 20 mg of HK-1 was weighed out using an electric balance, and therein 20 mL of methanol (1000 γ) was added followed by gentle stirring. Each 3.3 mL was aliquoted to totally two 15-mL Falcon tubes. To one of them 20 μL of 1 N sodium hydroxide was added followed by gentle stirring. The pH was tested with a pH test paper. Ten (10) μL of each sample was subjected to HPLC. The HPLC analysis conditions are as follows. Column: CAPCELL PAK Cis 5 μm, 4.6 mm 1. D×150 mm Mobile phase A: 0.1% aqueous solution of trifluoroacetic acid Mobile phase B: acetonitrile Temperature of thermostatic chamber for column: 40° C. Flow velocity: 1 mL/min UV: 254 nm Elution method: concentration gradient • 0 min to 18 min, B concentration 50% to 100% • 18.1 min to 23 min, B concentration 100% • 23.1 min to 25 min, B concentration 50%

[8] = system: Thermosporothrix hazakensis SK20-1^T NBRC 105916^T; test: Antibacterial spectrum test, paper disk assay; assay type: cell-based; conditions: 50 μL of 1000 γ solution in methanol, YS medium, 50° C., 2 days
Protocol: as §3, §4
(§6) Assays were performed in the same manner as in 3 above, except that the incubation conditions were changed to YS culture medium (see Example 1), 50° C., and 2-day period.

[9] = system: Thermosporothrix narukonensis F4^T; test: Antibacterial spectrum test, paper disk assay; assay type: cell-based; conditions: 50 μL of 1000 γ solution in methanol, YS medium, 50° C., 2 days
Protocol: as §3, §4, §6

[10] = pH not adjusted, storage at −28° C., 28° C., 50° C., 1 to 24 days
[11] = two samples (pH 9, pH not adjusted), stored at −28° C., 28° C. and 50° C., after 24 days

COc1cc(OOc2cc(OC)c3c(c2-c2c(O)c(Cl)c(C)c4c2C(O)c2c(Cl)c(O)cc(O)c2C4=O)C(OC2OC(C)C(O)C2O)c2c(Cl)c(OC)c(Cl)c(C)c2C3=O)c(-c2c(O)c(Cl)c(C)c3c2C(O)c2c(Cl)c(O)cc(O)c2C3=O)c2c1C(=O)c1c(C)c(Cl)c(OC)c(Cl)c1C2OC1OC(C)C(O)C1O (stereo not drawn) [HK-1]
difference in antibacterial activity due to the storage temperature [1, 10]: no significant difference
antibacterial activity after storage [1, 11]: not lost
difference in antibacterial activity due to the storage temperature [2, 10]: no significant difference
antibacterial activity after storage [2, 11]: not lost
inhibition ring diameter [3]: 38.0 mm
inhibition ring diameter [4]: 16.0 mm
inhibition ring diameter [5]: 19.0 mm
inhibition ring diameter [6]: 22.0 mm
pH stability (degradation peak in HPLC analysis) ([7]; pH adjusted to 9 with 1 N sodium hydroxide): stable with no recognizable degradation peak
pH stability (degradation peak in HPLC analysis) ([7]; pH not adjusted): stable with no recognizable degradation peak
inhibition ring diameter [8]: 10.0 mm
inhibition ring diameter [9]: 10.0 mm
